Assay [1] addresses T1, human adenosine A2a receptor (Homo sapiens, UniProt P29274).
T1 construct: expressed in transfected cells; host or cells: CHO-K1
Put plainly: Adenosine A2a Receptor Functional Assay (A2AGAL2). The format is cell-based. The note with it: CHO-K1 cells, cAMP inducible beta-galactosidase reporter, 15 nM NECA agonist challenge. The protocol: (§1) To initiate the functional assay, cryopreserved CHO-K1 cells overexpressing the human adenosine A2a receptor and containing a cAMP inducible beta-galactosidase reporter gene were thawed, centrifuged, DMSO containing media removed, and then seeded with fresh culture media into clear 384-well tissue culture treated plates (BD #353961) at a concentration of 10K cells/well. Prior to assay, these plates were cultured for two days at 37° C., 5% CO2, 90% Rh. On the day of the functional assay, culture media was removed and replaced with 45 uL assay medium (Hams/F-12 Modified (Mediatech #10-080CV) supplemented w/0.1% BSA). Test compounds were diluted and 11 point curves created at a 1000× concentration in 100% DMSO. Immediately after addition of assay media to the cell plates, 50 nL of the appropriate test compound antagonist or agonist control curves were added to cell plates using a Cartesian Hummingbird. Compound curves were allowed to incubate at room temperature on cell plates for approximately 15 minutes before addition of a 15 nM NECA (Sigma E2387) agonist challenge (5 uL volume). A control curve of NECA, a DMSO/Media control, and a single dose of Forskolin (Sigma F3917) were also included on each plate. After additions, cell plates were allowed to incubate at 37° C., 5% CO2, 90% Rh for 5.5-6 hours. After incubation, media was removed, and cell plates were washed 1×50 uL with DPBS w/o Ca & Mg (Mediatech 21-031-CV). Into dry wells, 20 uL of 1× Reporter Lysis Buffer (Promega E3971 (diluted in dH2O from 5× stock)) was added to each well and plates frozen at −20° C. overnight. For β-galactosidase enzyme calorimetric assay, plates were thawed out at room temperature and 20 μL 2× assay buffer (Promega) was added to each well. Color was allowed to develop at 37° C., 5% CO2, 90% Rh for 1-1.5 h or until reasonable signal appeared. The calorimetric reaction was stopped with the addition of 60 μL/well 1M sodium carbonate. Plates were counted at 405 nm on a SpectraMax Microplate Reader (Molecular Devices). Data was analyzed in Microsoft Excel and IC/EC50 curves were fit using a standardized macro.

Assay [2] addresses T2, human A2a adenosine receptor (Homo sapiens, UniProt P29274).
T2 construct: purchased PerkinElmer RB-HA2a; host or cells: HEK293 plasma membrane
Put plainly: Ligand Binding Assay for Adenosine A2a Receptor (A2A-B). The note with it: HEK293 cell plasma membrane, radioligand [3H]CGS21680. The protocol: Ligand binding assay of adenosine A2a receptor was performed using plasma membrane of HEK293 cells containing human A2a adenosine receptor (PerkinElmer, RB-HA2a) and radioligand [^3H]CGS21680 (PerkinElmer, NET1021). Assay was set up in 96-well polypropylene plate in total volume of 200 μL by sequentially adding 20 μL 1:20 diluted membrane, 130 μL assay buffer (50 mM Tris·HCl, pH7.4 10 mM MgCl2, 1 mM EDTA) containing [^3H] CGS21680, 50 μL diluted compound (4×) or vehicle control in assay buffer. Nonspecific binding was determined by […] NECA. Reaction was carried out at room temperature for 2 hours before filtering through 96-well GF/C filter plate pre-soaked in 50 mM Tris·HCl, pH7.4 containing 0.3% polyethylenimine. Plates were then washed 5 times with cold 50 mM Tris·HCl, pH7.4, dried and sealed at the bottom. Microscintillation fluid 30 μL was added to each well and the top sealed. Plates were counted on Packard Topcount for [^3H]. Data was analyzed in Microsoft Excel and GraphPad Prism programs. (Varani, K.; Gessi, S.; Dalpiaz, A.; Borea, P. A. British Journal of Pharmacology, 1996, 117, 1693)

For assay [3], the target named is T3, human adenosine A1 receptor (Homo sapiens, UniProt P30542).
T3 construct: expressed in transfected cells; host or cells: CHO-K1
T3 sequence (P30542 1-326): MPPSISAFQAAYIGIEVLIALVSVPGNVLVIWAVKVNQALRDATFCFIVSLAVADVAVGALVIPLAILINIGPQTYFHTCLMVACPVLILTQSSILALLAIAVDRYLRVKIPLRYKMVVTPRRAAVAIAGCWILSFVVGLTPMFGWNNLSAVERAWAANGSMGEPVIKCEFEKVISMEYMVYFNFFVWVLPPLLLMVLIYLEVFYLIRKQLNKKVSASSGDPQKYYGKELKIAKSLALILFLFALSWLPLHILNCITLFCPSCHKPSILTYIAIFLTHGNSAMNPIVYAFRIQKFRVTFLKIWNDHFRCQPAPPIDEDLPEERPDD
Put plainly: Adenosine A1 Receptor Functional Assay (A1GAL2). It counts as cell-based. Conditions: CHO-K1 cells, cAMP inducible beta-galactosidase reporter, 4nM r-PIA/1 uM Forskolin agonist challenge. How it is done:
as §1, with “A1” for “A2a”, “4nM r-PIA” for “15 nM NECA”, “P4532)/1 uM Forskolin (Sigma F3917)” for “E2387)”, “r-PIA in 1 uM Forskolin,” for “NECA,”, “Forskolin” for “Forskolin (Sigma F3917)”

For orientation: Ki means a measure of affinity in units of concentration, obtained from inhibition or displacement. A high value points to lower affinity.

A value given as a limit tells only on which side of the number the result lay.

T1 sequence (P29274 whole entry): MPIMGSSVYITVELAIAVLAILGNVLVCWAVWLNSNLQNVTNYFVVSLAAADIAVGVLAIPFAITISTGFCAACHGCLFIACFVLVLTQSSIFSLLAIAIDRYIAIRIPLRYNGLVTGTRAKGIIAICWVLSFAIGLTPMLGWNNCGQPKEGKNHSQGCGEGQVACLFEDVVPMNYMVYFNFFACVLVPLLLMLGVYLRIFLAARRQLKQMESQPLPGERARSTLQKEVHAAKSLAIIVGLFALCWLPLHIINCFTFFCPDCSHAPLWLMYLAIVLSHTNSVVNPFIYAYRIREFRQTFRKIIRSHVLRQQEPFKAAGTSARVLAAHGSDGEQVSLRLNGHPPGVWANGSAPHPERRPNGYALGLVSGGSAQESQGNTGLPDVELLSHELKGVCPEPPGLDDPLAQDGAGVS
T2 sequence (P29274 whole entry): as above

On to `Cc1csc(-c2nc(N)c3cc(C(=O)N4CCOCC4)sc3n2)n1` [Example 3, [4-Amino-2-(4-methyl-thiazol-2-yl)-thieno[2,3-d]pyrimidin-6-yl]-morpholin-4-yl-methanone], for which the inhibitory constant (Ki) in assay [1] came to 0.0249 µM; in assay [2], 0.0455 µM; in assay [3], 0.851 µM.

Regarding `Cc1ccc(-c2nc(N)c3cc(C(=O)N4CCOCC4)sc3n2)o1` [Example 5, [4-Amino-2-(5-methyl-furan-2-yl)-thieno[2,3-d]pyrimidin-6-yl]-morpholin-4-yl-methanone], the values for the inhibitory constant (Ki) in assay [1], in assay [2] and in assay [3] were 0.011 µM, 0.012 µM and 0.167 µM, respectively.

In the case of `CC(C)(C)N1CCN(C(=O)c2cc3c(N)nc(-c4cccc(C#N)c4)nc3s2)CC1` [Example 9, 3-[4-Amino-6-(4-tert-butyl-piperazine-1-carbonyl)-thieno[2,3-d]pyrimidin-2-yl]-benzonitrile], the values for the Ki in assay [1] and in assay [3] were 0.0942 µM and 0.603 µM, respectively.

In the case of `Cc1csc(-c2nc(N)c3cc(C(=O)N4CCN(Cc5ccccn5)CC4)sc3n2)n1` [Example 28, [4-Amino-2-(4-methyl-thiazol-2-yl)-thieno[2,3-d]pyrimidin-6-yl]-(4-pyridin-2-ylmethyl-piperazin-1-yl)-methanone], the results for the Ki in assay [1] and in assay [3] were 0.16 µM and > 1.04 µM, respectively.

Regarding `Nc1nc(-c2nccs2)nc2sc(C(=O)N3CCOCC3)cc12` [Example 4, (4-Amino-2-thiazol-2-yl-thieno[2,3-d]pyrimidin-6-yl)-morpholin-4-yl-methanone], the inhibition constant Ki was determined as 0.0809 µM in assay [1] and 1.43 µM in assay [3].

For the molecule `C[C@@H]1CN(C(=O)c2cc3c(N)nc(-c4cccc(C#N)c4)nc3s2)C[C@H](C)O1` [Example 1, 3-[4-Amino-6-(2,6-dimethyl-morpholine-4-carbonyl)-thieno[2,3-d]pyrimidin-2-yl]-benzonitrile], the inhibitory constant (Ki) in assay [1] turned out to be 0.184 µM; in assay [3] it was 0.598 µM.

Regarding `CC(C)(C)N1CCN(C(=O)c2cc3c(N)nc(-c4ccc(C5CC5)o4)nc3s2)CC1` [Example 32, [4-Amino-2-(5-cyclopropyl-furan-2-yl)-thieno[2,3-d]pyrimidin-6-yl]-(4-tert-butyl-piperazin-1-yl)-methanone], the Ki in assay [1] is 1.24 µM; in assay [3] it was > 1.04 µM.

As to `Cc1csc(-c2nc(N)c3cc(C(=O)NCCc4cccnc4)sc3n2)n1` [Example 11, 4-Amino-2-(4-methyl-thiazol-2-yl)-thieno[2,3-d]pyrimidine-6-carboxylic acid(2-pyridin-3-yl-ethyl)-amide], the figures for the inhibition constant Ki in assay [1] and in assay [3] were 0.0179 µM and 0.53 µM, respectively.

Regarding `N#Cc1cccc(-c2nc(N)c3cc(C(=O)NCc4cccnc4)sc3n2)c1` [Example 19, 4-Amino-2-(3-cyano-phenyl)-thieno[2,3-d]pyrimidine-6-carboxylic acid(pyridin-3-ylmethyl)-amide], the figures for the Ki in assay [1] and in assay [3] were 0.0142 µM and 0.0219 µM, respectively.

As to `N#Cc1cccc(-c2nc(N)c3cc(C(=O)N4CCOCC4)sc3n2)c1` [Example 2, 3-[4-Amino-6-(morpholine-4-carbonyl)-thieno[2,3-d]pyrimidin-2-yl]-benzonitrile], the inhibitory constant (Ki) in assay [1] worked out at 0.0379 µM; in assay [2], 0.022 µM; in assay [3], 0.9 µM.

Values taken from patent US20100093714A1, “AMIDES OF THIENO[2,3-d]PYRIMIDINE AND THEIR USE AS ADENOSINE A2a RECEPTOR ANTAGONISTS” (priority 2008, published 2010).
